# Measurements reported in patent US10849872B2, “Methods and compositions for treating obesity, preventing weight gain, promoting weight loss, promoting slimming, or treating or preventing the development of diabetes” (NAN Global, LLC, priority 2014, dated 2020).
# Experiments:
# [1] = Shelf life of synthesised tyrphostin 9; assay type: physicochemical; conditions: at 25-35° C.
# Description: This procedure yields about 800 g (about 95% yield) of a light-yellow microcrystalline solid that melts at 141-142° C. (uncorrected), presents UV absorption maxima at 247 nm and 365 nm and has an Rf value of 0.65 (using benzene as eluant and Merck's TLC silica gel 60 F254 plastic-backed sheets), with only one spot being observed. The mixed melting point of this compound and authentic tyrphostin 9 (acquired from Cayman Chemical) was also 141-142° C. (uncorrected), and its spectroscopic and chromatographic properties were identical to those of the authentic product. This compound is stable, with a shelf life of over 1 year at 25-35° C.; if necessary it may be recrystallized from ethanol.
# [2] = test system: human cell lines (brain, liver, lung, intestine, kidney, and muscle); test: Preclinical toxicity study in human cell lines; assay type: cell-based; conditions: all examined human cell lines: brain
# Description: (§1) A preclinical toxicity study of tyrphostin 9 was conducted in human cell lines (brain, liver, lung, intestine, kidney, and muscle), followed by feeding experiments of C57BL/6 mice. In the in vivo mice experiments, the mice were orally administered tyrphostin 9 during 15 days, at a dose of 0.175 mg/kg/day.
# [3] = test system: differentiation of keratocytes into adipocytes; test: Inhibition of differentiation into adipocytes; assay type: cell-based
# C57BL/6 mice = test: Feeding experiments of C57BL/6 mice, oral tyrphostin 9; assay type: in vivo
# Description: as §1
# [4] = test system: overweight, obese, and/or diabetic subjects; test: Preliminary trial in overweight, obese, and/or diabetic subjects; assay type: in vivo, human
# Description: A preliminary trial involving 75 overweight, obese, and/or diabetic subjects of both sexes was carried out over a twenty-month period. Exclusion criteria were: (1) recent significant weight gain, (2) a compromised thermoregulatory system, (3) pregnancy, (4) renal or hepatic failure, (5) use of illegal drugs or drugs that impair the body's heat dissipation mechanisms, (6) serious dysrhythmias, (7) unstable angina pectoris, (8) congestive heart failure, (9) severe cerebrovascular disease, (10) use of a pacemaker, (11) severe pulmonary impairment, (12) anemia, (13) Parkinson's disease, (14) body weight of less than 35 kilograms, (15) extensive psoriasis, (16) repeated episodes of hypoglycemia, (17) cystic fibrosis, (18) spinal cord injury, (19) a hereditary muscle disease, (20) chronic or recurrent venous thrombosis, (21) untreated hyperthyroidism, (22) exercise- or heat-induced angioedema, (23) seizure disorders, (24) schizophrenia, and (25) hypocalcemia.
# Medications that reduce sweating, decrease vasodilatation, decrease cardiac output, or induce hypothalamic depression were not taken prior to, during, and immediately after treatment.
# Obese participants, aged 16-72, were administered orally one or more hard gelatin capsules per day, each containing 20 mg of active ingredient (i.e., tyrphostin 9) and microcrystalline cellulose. They were instructed not to modify their food intake or to start a course of exercise. […] Afterwards, different dosing schedules were imposed, with refractory individuals being administered two or three capsules per day (i.e., 40 or 60 mg tyrphostin 9 per day), whereas only one capsule per day was administered to all others, who consequently received 20 mg tyrphostin 9 per day throughout the trial.
# Participants were also instructed to prevent dehydration by drinking plenty of water and to replenish electrolytes by taking both potassium and magnesium supplements or V-8 Juice or Gatorade. Those receiving two capsules per day were asked to take them at the same time during weeks two and three and then to switch to one in the morning and one at night during weeks four and five. Participants receiving 40 mg tyrphostin 9 per day reported that sweating/body temperature peaked either during night time or day time, depending on whether the two capsules were taken in the morning or at night. […] Obese participants lost on average 4 kg per month, with cumulative weight losses of up to 48 kg.
# Diabetic subjects (mostly obese and all presenting Type 2 diabetes mellitus) were similarly treated.
# obese subjects = test: Synergistic effects of tyrphostin 9 and L-carnitine tartrate in obese subjects; assay type: in vivo, human; conditions: Group A: two capsules per day of 20 mg tyrphostin 9, oral
# Description: Obese subjects with similar BMI and whose weight had remained essentially constant during the past 30 days were recruited, instructed not to modify their eating habits, food intake, or lifestyle, and randomly and blindly assigned to either treatment Group A, Group B, or Group C.
# Subjects in Group A were administered (orally) two capsules per day, each containing 20 mg Tyrphostin 9 plus inert excipient; subjects in Group B were administered (orally) four capsules per day, each containing 5 mg tyrphostin 9 and about 700 mg L-carnitine tartrate; subjects in Group C were administered—in the morning—two capsules, each containing 20 mg Tyrphostin 9 plus inert excipient, and—at night time—four capsules, each containing about 700 mg of L-carnitine tartrate.
# After a two week washout period, a new experiment was initiated. Subjects in Group A were orally administered two capsules per day, each containing 20 mg Tyrphostin 9 plus inert excipient, subjects in Group B were given eight capsules per day, each containing 5 mg Tyrphostin 9 plus about 700 mg L-carnitine tartrate, and subjects in Group C were administered—in the morning—two capsules, each containing 20 mg tyrphostin 9 plus inert excipient and, at night, eight capsules each containing about 700 mg L-carnitine tartrate.
# human neutrophils = conditions: well known properties; cited from earlier work
# [5] = well known properties; cited from earlier work
smiles,measurement,setting,value
CC(C)(C)c1cc(C=C(C#N)C#N)cc(C(C)(C)C)c1O [tyrphostin 9],shelf life,[1],over 1 year
same,toxicity in human cell lines,[2],low
same,differentiation of keratocytes into adipocytes,[3],inhibits
same,toxicity or inflammation in treated mice,"C57BL/6 mice; 0.175 mg/kg/day during 15 days, histochemical and behavioral criteria",no evidence of toxicity or inflammation
same,adipocyte dimensions,C57BL/6 mice; concomitant with visceral lipid transport,reduction
same,effect on chow intake,C57BL/6 mice; lean mice,no such effect
same,"apoptosis induction, obese versus lean mice","C57BL/6 mice; mouse, in vivo",more evident in obese mice than in lean mice
same,glycogen storage in hepatocytes,"C57BL/6 mice; mouse, in vivo",promotes
same,visceral lipid transport from adipocytes,"C57BL/6 mice; mouse, in vivo",promotes
same,chow intake curtailed,"C57BL/6 mice; obese mice grown on a high-fat diet, oral 0.175 mg/kg/day, 15 days",about 50%
same,adipocyte apoptosis mediated by caspase-3,C57BL/6 mice; to a greater extent than taurosporine,promotes
same,"sweating/heat sensation, two capsules simultaneously versus one in the morning and one at night","[4]; 40 mg per day, weeks two and three simultaneous, weeks four and five split",more intense during weeks two and three
same,slimming (waist circumference and other body measurements),"[4]; all participants, end of treatment",significant reductions in waist circumference
same,blood glucose level,"[4]; diabetic subjects (Type 2 diabetes mellitus, mostly obese)",significant decrease
same,sweating / body temperature reported by participants,"[4]; end of first week, one 20 mg capsule per day, oral",most of them reported sweating copiously and/or noticing a distinct increase in body temperature
same,sweating / heat sensation reported by participants,"[4]; end of trial, 20, 40 or 60 mg per day, all participants",sweating copiously and/or experienced an increased heat sensation
same,adverse effects,"[4]; human, in vivo",no adverse effects were reported
same,muscle mass loss,"[4]; human, in vivo",negligible
same,rebound effect,"[4]; human, in vivo",no “rebound effect” was observed
same,tolerability of treatment,"[4]; human, in vivo",very well tolerated
same,blood lipid values,[4]; obese and diabetic subjects,lower blood lipid values
same,cumulative weight losses,[4]; obese participants,up to 48 kg
same,average weight loss,"[4]; obese participants, 20-60 mg per day oral",4 kg per month
same,weight loss after 15 days,obese subjects,about 2 kg
same,TNF-induced respiratory burst of human neutrophils,human neutrophils,inhibits
same,toxicity (in vitro and in vivo),[5],very low toxicity
